Twelve molecules from PubChem BioAssay (NCI) can be followed below.

“And” between values parts separate entries of the source, which are not always exact repeats. Identical values can stand only once.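 Step 1: Grow cells in 96-well plates. Step 2: Expose to compound for 48 hours at 5 concentrations. Step 3: Interpolate endpoints linearly; if unreached, use highest concentration. At the GI50, growth is halved. TGI: total growth inhibition.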

Test systems include BT-549 breast; HCT-116 colon; HL-60(TB) leukemia; HOP-62 NSCLC; IGROV1 ovarian; K-562 leukemia; MDA-MB-435; MOLT-4 leukemia; SNB-19 CNS; SNB-75 CNS; TK-10 renal; UO-31 renal.
Holding throughout (assay): inhibition of tumour cell growth, NCI panel, 48 h

Consider `COc1nc(OC)nc(-c2cccc(F)c2)n1`, for which the TGI in the assay with BT-549 breast is 29.7 µM; in the assay on HCT-116 colon it was 40.5 µM; with HL-60(TB) leukemia it was above 100 µM; with HOP-62 NSCLC it was 45.7 µM; in the assay with IGROV1 ovarian it was 31.8 µM; with K-562 leukemia, 53.7 µM. Further, the TGI in the assay on MDA-MB-435 is 31 µM; in the assay on MOLT-4 leukemia, above 100 µM; in the assay with SNB-19 CNS, 32.4 µM; with SNB-75 CNS it was 44.4 µM; in the assay with TK-10 renal, 33.1 µM; in the assay with UO-31 renal, 31.8 µM.

Consider `Cc1ccnc(NC(=S)Nc2cccc(Cl)c2)c1`, for which the TGI with BT-549 breast, with HCT-116 colon, with HL-60(TB) leukemia, in the assay on HOP-62 NSCLC, with IGROV1 ovarian and with K-562 leukemia was above 100 µM in each case. Moreover, the TGI in the assay on MDA-MB-435, in the assay on MOLT-4 leukemia, in the assay with SNB-19 CNS, in the assay on SNB-75 CNS, in the assay on TK-10 renal and in the assay on UO-31 renal was above 100 µM in each case.

`O=[N+]([O-])c1ccc2c(Nc3ccccc3-c3ccccc3Nc3c4ccccc4nc4cc([N+](=O)[O-])ccc34)c3ccccc3nc2c1`: the TGI was found to be 7.74 µM in the assay on BT-549 breast; 6.38 µM with HCT-116 colon; 15.1 µM in the assay on HL-60(TB) leukemia; 41.4 µM in the assay with HOP-62 NSCLC; 36.1 µM in the assay with IGROV1 ovarian; 15.5 µM in the assay on K-562 leukemia. Further, the TGI in the assay on MDA-MB-435 was 3.8 µM; in the assay on MOLT-4 leukemia, 50.4 µM; in the assay on SNB-19 CNS, 43.8 µM; with SNB-75 CNS, 34.5 µM; with TK-10 renal, 36.9 µM; in the assay with UO-31 renal it was 28.8 µM.

On to `Cc1cc(O)ccc1C1(c2ccc(F)cc2)OC(=O)c2ccccc21` (configuration not stated), for which the TGI in the assay with BT-549 breast is 0.653 µM; in the assay with HCT-116 colon it was 12.6 µM; with HL-60(TB) leukemia it was above 72.2 µM; in the assay on HOP-62 NSCLC it was 19.7 µM; in the assay on IGROV1 ovarian it was 10.2 µM; in the assay with K-562 leukemia, above 72.9 µM. The TGI in the assay with MDA-MB-435 was 26.9 µM; in the assay on MOLT-4 leukemia it was above 100 µM; with SNB-19 CNS it was 15.4 µM; with SNB-75 CNS it was 8.01 µM; with TK-10 renal, 15.5 µM; in the assay with UO-31 renal, 16.1 µM.

As to `Cc1ccc(OCC2OC(n3cnc4c(Cl)ncnc43)CC2Oc2ccc(C)cc2)cc1` (configuration not stated), the TGI is 40 µM and 49.9 µM in the assay on BT-549 breast; 7.13 µM and 38.2 µM in the assay with HCT-116 colon; 7.17 µM in the assay with HL-60(TB) leukemia; 13 µM and 38 µM in the assay on HOP-62 NSCLC; 5.88 µM and 14 µM in the assay with IGROV1 ovarian; > 23.9 µM and 61.8 µM in the assay on K-562 leukemia. The TGI with MDA-MB-435 is 21 µM and 16.4 µM; with MOLT-4 leukemia it was 12.7 µM and 7.95 µM; in the assay on SNB-19 CNS, 6.86 µM and 33.4 µM; in the assay with SNB-75 CNS it was 34.3 µM and > 68.7 µM; with TK-10 renal it was above 100 µM; in the assay with UO-31 renal, 15.8 µM and 3.29 µM. Besides, the GI50 in the assay on HCT-116 colon was 2.4 µM and 14.3 µM; in the assay with HL-60(TB) leukemia, 2.79 µM; in the assay with HOP-62 NSCLC, 4.29 µM and 17.5 µM; in the assay on IGROV1 ovarian, 2.43 µM and 5.87 µM; in the assay on MDA-MB-435 it was 5.84 µM and 2 µM; in the assay on SNB-19 CNS, 2.8 µM and 17 µM. Further, the GI50 in the assay with UO-31 renal is 8.08 µM and 1.84 µM.

Turning to `N#CC12C(=O)N3C(=NC(c4ccccc4)NC3c3ccccc3)C1(C#N)C(c1ccccc1)NC1=C2CCCC1` (configuration not stated), the TGI with BT-549 breast, with HCT-116 colon, in the assay with HL-60(TB) leukemia, in the assay with HOP-62 NSCLC, with IGROV1 ovarian and in the assay on K-562 leukemia was above 100 µM each time. The TGI in the assay on MDA-MB-435, in the assay with MOLT-4 leukemia, in the assay with SNB-19 CNS, in the assay with SNB-75 CNS, with TK-10 renal and in the assay on UO-31 renal was above 100 µM throughout.

On to `Cn1c2c(c3ccccc31)CCN1C(=O)C3SC21C1C(=O)N(c2ccccc2)C(=O)C31` (configuration not stated), for which the TGI is above 100 µM with BT-549 breast; above 100 µM in the assay on HCT-116 colon; above 77.3 µM with HL-60(TB) leukemia; above 100 µM in the assay with HOP-62 NSCLC; above 100 µM in the assay with IGROV1 ovarian; above 100 µM with K-562 leukemia. In addition, the TGI was above 100 µM in the assay on MDA-MB-435; above 100 µM with MOLT-4 leukemia; above 100 µM in the assay with SNB-19 CNS; above 100 µM with SNB-75 CNS; above 79.1 µM in the assay on TK-10 renal; above 100 µM with UO-31 renal. Also, the GI50 with SNB-75 CNS was 13.4 µM.

For `CC(=O)CC(C)(C)NC(=O)[C@@]1(O)CC[C@H]2[C@@H]3CCC4=CC(=O)CC[C@@H]4[C@H]3CC[C@@]21C`, the TGI in the assay on BT-549 breast, in the assay on HCT-116 colon, in the assay with HL-60(TB) leukemia, in the assay with HOP-62 NSCLC, in the assay with IGROV1 ovarian and in the assay with K-562 leukemia was above 100 µM in each case. The TGI in the assay with MDA-MB-435, in the assay with MOLT-4 leukemia, with SNB-19 CNS, in the assay with SNB-75 CNS, in the assay with TK-10 renal and with UO-31 renal was above 100 µM each time.

Take `[N-]=[N+]=NC[C@H]1OCO[C@H](CN=[N+]=[N-])[C@H]2OCCOCCOc3ccccc3OCCOCCO[C@@H]21`: the TGI in the assay on BT-549 breast, in the assay on HCT-116 colon, with HL-60(TB) leukemia, with HOP-62 NSCLC, in the assay on IGROV1 ovarian and with K-562 leukemia was above 100 µM in each case. Moreover, the TGI in the assay with MDA-MB-435, in the assay with MOLT-4 leukemia, in the assay on SNB-19 CNS, in the assay on SNB-75 CNS, with TK-10 renal and in the assay with UO-31 renal was above 100 µM in each case.

Consider `O=C(/C=C(\O)c1ccccc1)/C(=C/C(=O)c1ccccc1)NN=C(c1ccccc1)c1ccccc1`, for which the TGI in the assay with BT-549 breast was above 100 µM; in the assay on HCT-116 colon it was above 100 µM; in the assay with HL-60(TB) leukemia, 6.8 µM; in the assay with HOP-62 NSCLC it was above 100 µM; in the assay with IGROV1 ovarian, above 100 µM; in the assay with K-562 leukemia, above 100 µM. Moreover, the TGI is above 100 µM in the assay with MDA-MB-435; 52.5 µM with MOLT-4 leukemia; above 100 µM in the assay on SNB-19 CNS; above 100 µM in the assay on SNB-75 CNS; 97.6 µM in the assay with TK-10 renal; above 100 µM in the assay with UO-31 renal.

On to `S=C(N/N=C\c1ccccn1)N(Cc1ccccn1)Cc1ccccn1`, for which the TGI in the assay with BT-549 breast is 12.9 µM; with HCT-116 colon, 16.5 µM; in the assay with HL-60(TB) leukemia, above 100 µM; with HOP-62 NSCLC, 41.7 µM; with IGROV1 ovarian it was 11.2 µM; in the assay with K-562 leukemia, above 100 µM. Besides, the TGI in the assay with MDA-MB-435 is 41.8 µM; with MOLT-4 leukemia it was 19.4 µM; with SNB-19 CNS, 21.9 µM; in the assay on SNB-75 CNS it was 20.2 µM; with TK-10 renal it was 17.6 µM; with UO-31 renal, 7.87 µM.

As for `Oc1nc(N/N=C/c2ccccc2)[nH]c1/C=C1\C=Nc2ccccc21`, the TGI with BT-549 breast, in the assay with HCT-116 colon, in the assay on HL-60(TB) leukemia, in the assay with HOP-62 NSCLC, in the assay on IGROV1 ovarian and in the assay on K-562 leukemia was above 100 µM each time. The TGI in the assay with MDA-MB-435, in the assay on MOLT-4 leukemia, in the assay with SNB-19 CNS, with SNB-75 CNS, in the assay on TK-10 renal and with UO-31 renal was above 100 µM each time.
